In data set [1] the test system is L. (V.) braziliensis axenic amastigotes. Kind of data set: Antileishmanial activity on axenic amastigotes (MTT, 72 h). It is filed as cell-based, Leishmania (Viannia) braziliensis. Here is the method:
In vitro amastigogenesis was performed by transformation from promastigotes at the stationary phase of growth to obtention axenic amastigotes. This process involved altering the culture conditions to Schneider’s medium with a pH of 5.5, supplementing them with 5% FBS, and incubating them at a temperature of 32 °C [17].
Assessment of antileishmanial activity against promastigote and amastigote axenic forms of parasites followed the method described by Rodrigues et al. and involved the following steps: L. (V.) braziliensis parasites were cultured in 96-well plates at a concentration of 1 × 10^6 parasites per well. Each well contained 100 μL of supplemented Schneider medium. Serial concentrations of the test substances, ranging from 50 to 1.56 μmol/L, were prepared. Reference drugs, meglumine antimoniate (20 to 40,000 μmol/L) and amphotericin B (0.031 to 2 μmol/L) were also prepared. These concentrations were used to assess the effects of the test substances in comparison to reference drugs. The plates were incubated in a BOD incubator at 26 °C for 72 h. After the 72 h incubation period, 10 μL of MTT (5 mg/mL) was added to each well. The plates were then incubated for an additional 4 h. At the end of the 4 h incubation, formazan crystals formed by the reduction of the MTT salt were solubilized by adding 50 μL of a 10% (w/v) sodium dodecyl sulfate (SDS) solution in distilled water. Absorbance was measured using a microplate reader at a wavelength of 540 nm (Biosystems ELx800 model, Curitiba, PR, Brazil). This measurement quantified the metabolic activity of the parasites, which is indicative of their viability and proliferation. Schneider medium containing 0.2% DMSO was used as a negative control in the tests.

The subject of the next data set is nitric oxide (NO). As to the kind of experiment: Nitric oxide synthesis induction (Griess) in infected macrophages. Particulars: supernatant of RAW 264.7 macrophages infected with L. (V.) braziliensis. It is filed as cell-based, murine. The method, then: To evaluate the induction of nitric oxide (NO) synthesis, the following procedure was conducted: In 96-well plates, 100 μL of the supernatants obtained from the macrophage infection assays by L. (V.) braziliensis were placed. An equal volume of Griess® reagent (obtained from Sigma-Aldrich, St. Louis, MO, USA) was added to each well. In parallel, the same procedure was carried out using known concentrations of sodium nitrite (NaNO2, obtained from Vertec Química Fina, Duque de Caxias, RJ, Brazil) ranging from 125 to 2 μmol/L, which were prepared in RPMI medium. This was performedto generate a standard curve. The plates were then incubated at room temperature for 10 min. Subsequently, the absorbance of the samples was measured in a plate reader at a wavelength of 545 nm. The concentration of nitrite in the supernatants was determined by interpolating the absorbance values onto the standard curve.
Background: Nitrite, measured by Griess reagent, commonly stands in for NO production.

For another data set, the system named is TNF-α. Kind of data set: Cytokine production in supernatant of infected macrophages (ELISA), TNF-α. It is filed as cell-based, murine. The note with it: supernatant of RAW 264.7 macrophages infected with L. (V.) braziliensis. The text has this: To assess the production of cytokines TNF-α and IL-12 (associated with Th1 response), as well as IL-10 and IL-6 (associated with Th2 response), in the supernatants of the macrophage infection assay, the sandwich enzyme-linked immunosorbent assay (ELISA) method was employed, following the manufacturer’s instructions (eBioscience^TM, San Diego, CA, USA). Initially, capture antibodies specific to TNF-α, IL-6, IL-10, and IL-12 were sensitized in ELISA plates (NUNC-ImmunoTM, Sigma-Aldrich, St. Louis, MO, USA). The plates were incubated at 4 °C for 18 h. After the incubation period, all wells were washed with a solution containing 0.05% PBS and Tween 20 (Sigma-Aldrich, St. Louis, MO, USA). A blocking solution containing 10% FBS in PBS was added to the wells and incubated for 1 h. Subsequently, the wells were washed again. The supernatant obtained from the macrophage infection assay was added to the respective wells. Known concentrations of recombinant cytokines (TNF-α, IL-10, IL-6, and IL-12) were also added to the plate in parallel, covering a range from high to low concentrations. The plates were maintained at 4 °C for another 18 h. Following this incubation, additional washes were performed. The detector complex, consisting of biotinylated detection antibodies, was added to the wells. The plates were incubated for an additional hour. After another round of washing, the enzymatic complex avidin-peroxidase was added to each well. The plates were incubated for 30 min at room temperature. The reaction was initiated by adding a substrate solution containing tetramethylbenzidine and hydrogen peroxide. This reaction was allowed to proceed for 15 min. To stop the reaction, 1N sulfuric acid was added to each well. The absorbance was measured in a plate reader at a wavelength of 450 nm. The concentration of cytokines (TNF-α, IL-10, IL-6, and IL-12) in the supernatants was determined by interpolation from the standard curve.

Data set [2] in a line: Cell toxicity, MTT-based EZ4U assay, HEK-293. Details: species or system human. The note with it: human, HEK-293 cells (embryonic kidney), HEK, 72 h. Here is the method: (§1) In this study, we utilized the RAW 264.7 macrophages line (obtained from ATCC: code TIB-71™),human embryonic kidney cell line HEK-293 (obtained from ATCC: code CRL-1573™)and two human cancer cell cultures: the colon carcinoma cell line CaCo-2 and the adenocarcinomic human alveolar basal epithelial cell A549 (also obtained from ATCC: codesHTB-37™ and CCL-185™).These cell lines were cultured in Dulbecco’s modified Eagle medium (DMEM) from Gibco by Life Technologies (LifeTech Austria, Vienna, Austria). The growth medium was supplemented with 5% fetal bovine serum (FBS) from Gibco by Life Technologies and 1% penicillin-streptomycin obtained from Sigma-Aldrich (Vienna, Austria). The cells were maintained at 37 °C with 5% CO2 in a humidified incubator, and regular checks for mycoplasma contamination were carried out.
(§2) For experimental purposes, the cells were seeded into 96-well plates at a density of 2 × 10^4 cells/mL, with each well containing 100 µL of the cell suspension. The cells were allowed to adhere for 24 h. […] The stock solutions of these compounds were prepared in water with 10% (v/v) dimethyl sulfoxide (DMSO) and stored at 4 °C.
(§3) To assess cell viability after 72 h of exposure to the compounds, we employed a 3-(4,5-dimethylthiazol-2-yl)-2,5-diphenyltetrazolium bromide (MTT)-based vitality assay kit (EZ4U, Biomedica, Vienna, Austria). Briefly, we added 20 µL of the EZ4U assay solution to each well and incubated the plates in the dark for 2 h. Subsequently, we measured the absorbance using a microplate reader at 450 nm, with 620 nm as a reference to reduce unspecific background values. For reliability, all experiments were conducted three times with triplicate samples.
Background: Tetrazolium dyes change colour on reduction, which living cells bring about.

The test system of the next data set is HEK-293. As to the kind of experiment: Cell toxicity, MTT-based EZ4U assay, HEK-293. The arrangement: species or system human. The note with it: HEK-293, 1.56–500 µmol/L. The method, then: as §1, §2, §3

Each structure is given as a SMILES string. Read-outs that look alike come from different tables or passages of the source.

Here are results for five compounds from PMC10813298, “Evidence of Guanidines Potential against Leishmania (Viannia) braziliensis: Exploring In Vitro Effectiveness, Toxicities and of Innate Immunity Response Effects” (Biomolecules, 2023).

The term EC50 denotes the midpoint of the concentration-response curve. A higher EC50 goes with a less potent agent. One may read the viability as a read-out of living cells in per cent, often relative to untreated cells.

In the case of `CC(C)(C)c1ccc(N/C(=N\C(=O)c2ccccc2)NCc2ccccc2)cc1` [LQOF-G6, (Z)-N-benzoyl-N-benzyl-N-(4-tert-butylphenyl)guanidine], the midpoint of the response in data set [1] (Leishmania braziliensis), the EC50, lay at 4.3 ± 0.7 µM. The NO level result with nitric oxide (NO) is recorded as “increased”. Also, the TNF-α level result in the data set on TNF-α is “increased”.

On to `O=C(/N=C(/NCc1ccccc1)Nc1ccc(Br)cc1)c1ccccc1` [LQOF-G2, (Z)-N-benzoyl-N-benzyl-N-(4-bromophenyl)guanidine], for which, in data set [2], the viability at 72 h, 2.34 µmol/L is 104 ± 2.9%; the viability at 72 h, 4.6875 µmol/L was 109 ± 9.6%; the viability at 72 h, 9.375 µmol/L came out at 103 ± 13.5%; the viability at 72 h, 18.75 µmol/L was found to be 108 ± 8.6%. For the same compound, in data set [2], the viability at 72 h, 37.5 µmol/L was found to be 96 ± 2.9%; the viability at 72 h, 75 µmol/L is 99 ± 8.5%; the viability at 72 h, 150 µmol/L was determined as 145 ± 3.3%; the viability at 72 h, 300 µmol/L turned out to be 123 ± 7.1%. Besides, the viability at 72 h, 600 µmol/L in data set [2] worked out at 133 ± 8.4%. In addition, the “toxic effects on cell viability” value with HEK-293 is listed as “No toxic effects”. The compound also returned an EC50 in data set [1] (Leishmania braziliensis) of 5 ± 0.8 µM. Further, the NO level entry in the data set with nitric oxide (NO) is recorded as “increased”. In addition, the TNF-α level result in the data set with TNF-α was “increased”.

As for `O=C(/N=C(/NCc1ccccc1)Nc1ccc([N+](=O)[O-])cc1)c1ccccc1` [LQOF-G1, (Z)-N-benzoyl-N-benzyl-N-(4-nitrophenyl)guanidine], in data set [2], the viability at 72 h, 2.34 µmol/L was 99 ± 10%; the viability at 72 h, 4.6875 µmol/L amounted to 104 ± 11%; the viability at 72 h, 9.375 µmol/L was 125 ± 8.1%; the viability at 72 h, 18.75 µmol/L is 125 ± 9.4%. In data set [2], the viability at 72 h, 37.5 µmol/L was determined as 100 ± 11%; the viability at 72 h, 75 µmol/L was found to be 115 ± 7%; the viability at 72 h, 150 µmol/L amounted to 111 ± 5%; the viability at 72 h, 300 µmol/L came out at 117 ± 6%. The viability at 72 h, 600 µmol/L in data set [2] is 115 ± 10%. Besides, the “toxic effects on cell viability” value with HEK-293 is “No toxic effects”. The compound further had an EC50 in data set [1] of 4.3 ± 0.2 µM. This compound returned an EC50 in data set [1] (Leishmania braziliensis) of 4.27 µM. Further, the NO level result in the data set with nitric oxide (NO) is “increased”. Besides, in the data set on TNF-α, the TNF-α level result is given as “increased”.

As for `O=C(/N=C(/NCc1ccc(Cl)cc1Cl)Nc1ccc(Br)cc1)c1ccccc1` [LQOF-G32, (Z)-N-benzoyl-N-(2,4-di-chlorobenzyl)-N-(4-bromophenyl)guanidine], in data set [2], the viability at 72 h, 2.34 µmol/L is 93 ± 5.3%; the viability at 72 h, 4.6875 µmol/L was 95 ± 12.7%; the viability at 72 h, 9.375 µmol/L is 89 ± 7.9%; the viability at 72 h, 18.75 µmol/L was 94 ± 8.9%. Also, in data set [2], the viability at 72 h, 37.5 µmol/L was found to be 91 ± 6.9%; the viability at 72 h, 75 µmol/L was determined as 91 ± 13.9%; the viability at 72 h, 150 µmol/L was determined as 94 ± 12.7%; the viability at 72 h, 300 µmol/L stood at 118 ± 13.9%. Moreover, the viability at 72 h, 600 µmol/L in data set [2] was determined as 185 ± 10.1%. Also, the “toxic effects on cell viability” value with HEK-293 is recorded as “No toxic effects”.

For `O=C(/N=C(/NCc1ccccc1)Nc1ccc(I)cc1)c1ccccc1` [LQOF-G7, (Z)-N-benzoyl-N-benzyl-N-(4-iodophenyl)guanidine], the EC50 in data set [1] (Leishmania braziliensis) came to 6.1 µM.
